According to doi:10.1101/2025.01.15.632643v1 (biorxiv, 2025):
Read-outs that look alike come from different tables or passages of the source.

How the values were obtained:
[1] = target: T1, His-ZZ-DYRK1B kinase domain (DYRK1B protein) (Homo sapiens, UniProt Q9Y463); assay: biochemical; conditions: read-out: koff
[2] = target: T2, His-ZZ-DYRK1A kinase domain (DYRK1A protein) (Homo sapiens, UniProt Q13627); assay: biochemical; conditions: read-out: kon
[3] = target: T1, His-ZZ-DYRK1B kinase domain (DYRK1B protein); conditions: read-out: DYRK1B –; inhibitor
[4] = target: T2, His-ZZ-DYRK1A kinase domain (DYRK1A protein); assay: luminescent kinase assay after transient heating; assay type: biochemical
[5] = target: T2, His-ZZ-DYRK1A kinase domain (DYRK1A protein); assay: biochemical; conditions: read-out: koff
[6] = target: T1, His-ZZ-DYRK1B kinase domain (DYRK1B protein); assay: biochemical; conditions: read-out: kon
[7] = target: T1, His-ZZ-DYRK1B kinase domain (DYRK1B protein); conditions: read-out: DYRK1B Transient heating; inhibitor
[8] = target: T1, His-ZZ-DYRK1B kinase domain (DYRK1B protein); assay: luminescent kinase assay after transient heating; assay type: biochemical; conditions: […] °C […] sec heating with compound, then ATP […], DYRKtide […], pH […]
[9] = target: T2, His-ZZ-DYRK1A kinase domain (DYRK1A protein); conditions: read-out: DYRK1A Transient heating; with transient heating (20 sec); inhibitor
[10] = target: T2, His-ZZ-DYRK1A kinase domain (DYRK1A protein); conditions: read-out: DYRK1A –; without transient heating; inhibitor
[11] = target: T1, His-ZZ-DYRK1B kinase domain (DYRK1B protein); conditions: read-out: DYRK1B Transient heating; with transient heating (20 sec); inhibitor
[12] = target: T1, His-ZZ-DYRK1B kinase domain (DYRK1B protein); conditions: read-out: DYRK1B –; without transient heating; inhibitor

COc1ccc(/C=C2\SC(=S)NC2=O)cc1C#C[Si](C)(c1ccccc1)c1ccccc1 [compound 2, dp-FINDY]
koff [1]: 0.00012 s⁻¹ | kon [2]: 0.28 M⁻¹ s⁻¹ | IC50 [3]: > 32 µM | IC50 [4]: 2.6 µM | koff [5]: 2.2e-07 s⁻¹ | kon [6]: 200 M⁻¹ s⁻¹ | IC50 [7]: 2.5 µM

COc1ccc(/C=C2\NC(=S)NC2=O)cc1C#C[Si](C)(c1ccccc1)c1ccccc1 [compound 4, RD1408]
IC50 [7]: 14 µM

CCOc1cc(/C=C2\SC(=S)NC2=O)ccc1O [compound 5, RD0392]
IC50 [3]: 3.6 µM | IC50 [7]: 3.5 µM

C#Cc1cc(/C=C2\SC(=S)NC2=O)ccc1OC [compound 11, RD0448]
IC50 [8]: 16 µM | IC50 [3]: 52 µM | IC50 [4]: 38 µM

C#Cc1cc(/C=C2\SC(=S)NC2=O)ccc1O [compound 12, RD0562]
IC50 [3]: 23 µM | IC50 [7]: 23 µM

COc1ccc(/C=C2\SC(=S)NC2=O)cc1 [compound 13, RD1486]
IC50 [3]: 9.7 µM | IC50 [7]: 17 µM

COc1ccc(/C=C2\SC(=S)NC2=O)cc1/C=C/[Si](C)(C)C [dFINDY]
IC50 [9]: 4.9 µM | IC50 [10]: > 32 µM

COc1ccc(/C=C2\SC(=S)NC2=O)cc1/C=C/C1CCCCC1 [dscy-dFINDY]
IC50 [9]: 4.1 µM | IC50 [10]: > 32 µM

COc1ccc(/C=C2\SC(=S)NC2=O)cc1/C=C/C(C)(C)C [dstb-dFINDY]
IC50 [9]: > 32 µM | IC50 [11]: 7.4 µM | IC50 [10]: > 32 µM

COc1ccc(/C=C2\SC(=S)NC2=O)cc1C#C[Si](c1ccccc1)(c1ccccc1)c1ccccc1 [tp-FINDY]
IC50 [11]: 5.8 µM | IC50 [12]: > 32 µM

COc1ccc(/C=C2\SC(=S)NC2=O)cc1C#C[Si]([Si](C)(C)C)([Si](C)(C)C)[Si](C)(C)C [ts-FINDY]
IC50 [11]: 4.6 µM | IC50 [12]: > 32 µM
